US6458760B1, “Method for treating tissue damaged from ischemia” (Henry Ford Health System, priority 1998, dated 2002)
Residues, ends and D or L forms follow the SMILES beside them. *: point of attachment. Cbz = O=C(OCc1ccccc1)*; CHN2 = [N-]=[N+]=C*; Bn = c1ccc(C*)cc1

Legend:
Calpain = Calpain inactivation rate, fluorimetric progress curves; type: biochemical; details: second order inactivation rate constant corrected for substrate; substrate Suc-Leu-Tyr-AMC; pH 7.5, 37° C.
Description: (“Tian, et al.”) the contents of which are incorporated by reference. More specifically, the value of kobs is given by the slope of a plot of ln [P]∞−[p]t versus t (time). The apparent second-order rate contact for inactivation, k2app was calculated as kobs/[I]. The inactivation-rates (kobs) in the presence of substrate and for different inhibitor concentrations for calpain, cathepsin B and cathepsin L are determined according to the method of Tian, et al. However, k2app is corrected for the presence of substrate (s) to give the second order rate constant k^12app, calculated as k^12app=k2app (1+[s]/Km).
Calpain was assayed fluorimetrically in 1 ml of 50 mM Tris/acetate buffer, pH 7.5, containing 5 mM CaCl2, 2.5 mM DTT(dithiothreitol), 0.1% Triton X-100 at 37° C., using 2.5×10^−4 M Suc-Leu-Tyr-aminomethylcoumarin (AMC) (Novabiochem, Switzerland) as substrate and 50nM (final concentration) of enzyme. The appearance of the 7-amino-4 methylcoumarin product was recorded continuously with a Perkin Elmer 650-10S spectrofluorimeter, a SPEX Fluorolog 1680, or SLM 8000C fluorescence spectrometer with excitation at 370 nm and emission at 460 nm.
Typically, 5 μL of the substrate solution (50 mM stock in DMSO) was added to 1 mL of buffer. Varying concentrations of the inhibitor solution (10 μL of a DMSO […] solution) were added, followed by 10 μL of calpain in the assay buffer. After allowing the reaction mixture to incubate for 2-5 min, during which time a steady baseline level of fluorescence was measured, calcium was added in a 10-μL volume to initiate hydrolysis of the fluorogenic substrate, and the resulting increase in fluorescence was monitored continuously. When inhibitors were tested at very low concentrations, the enzyme concentration was reduced to maintain a minimum of a 10-fold excess of inhibitor over enzyme.

[1] = test system: Wistar rats with MCA occlusion; assay: Stroke model, 2 h MCA occlusion, i.v. infusion after reperfusion, infarct volume at 7 days; type: in vivo, rat; details: for % Hemisphere Infarct Volume (% ± SEM): 2 h MCA occlusion, day 7, control 37 ± 2.6
Description: Male Wistar rat weighing between 270-290 gm are fasted the night prior to surgery. Each rat was then anesthetized with 3.5% halothane, and spontaneously respired with 0.5% halothane in a 2:1 N2O:O2 mixture using a face mask. A normal range of blood gases and pH is maintained during ischemia and reperfusion with the face mask inhalation, as verified by samples taken from a femoral artery PE-50 catheter. Body temperature is maintained constant at 37° C. with a recirculating heating pad and K module with an intrarectal type T thermocouple. The PE-50 catheters are inserted into the femoral artery and vein following induction of anesthesia to obtain the blood gas, glucose and hemoglobin concentrations and to monitor blood pressure.
The right common carotid artery, external carotid artery and internal carotid artery are isolated using microsurgical techniques. A clamp is applied to the common carotid artery and a 4-0 nylon suture with a rounded tip is inserted into the external carotid artery through a small puncture. The clamp on the common carotid artery is removed. The suture is passed distally into the internal carotid artery until it blocks the middle cerebral artery. Two hours after the MCA occlusion, the animal is again anesthetized, and the nylon suture is removed from the internal carotid artery.
Infusion of the inhibitor or vehicle is done by intravenous infusion via the femoral vein.
Syringe pumps were filled under sterile conditions with either isotonic saline/1% DMSO solution as the control or with the concentration of CP-1 or CP-2 indicated in the examples, hereinbelow. The pumps delivered the solution at a rate of 15 μl/min for up to 4 hours.
(§1) After anesthesia had been induced in the rat, a catheter was inserted into the femoral vein and tunneled subcutaneously in the posterior neck region. Body temperature was maintained at a constant temperature of 37° C. during surgical procedures. The animals underwent 2 hours of MCA occlusion, and then reperfusion when the suture was withdrawn, and immediately thereafter, the drug was infused for four hours. The animals were killed after a 7-day reperfusion, and the brains were formalin fixed and sliced 6-μm thick into seven coronal sections A-G, and mounted on coated slides. After staining with hematoxylin and eosin, the stroke volume was measured using an image analysis program. The stroke area and the contralateral hemispheric area were calculated by tracing the areas on the computer screen, and the volumes were determined by multiplying the appropriate area by the section interval thickness. The stroke volume is expressed as the percentage of lesion size to the volume of contralateral hemisphere. Statistical analysis was performed using the independent t-test.
CP-1 dissolved in 1% DMSO and isotonic saline was given intravenously to Wistar rats (15 μl/min) at concentrations of 2 μM, 10μM, 50μM and 25μM for 4 hours immediately after reperfusion following two hours of MCA occlusion, in accordance with the procedure described hereinabove. Control animals underwent a similar protocol but they had injected therein 1% DMSO/Saline as the vehicle within four hours. All animals which survived 7 days were sacrificed and the stroke volume calculated. The results are tabulated hereinbelow:
The protocol described hereinabove was repeated with CP-2 used in lieu of CP-1, at doses of 10, 50, 250 and 500 μM.

[2] = test system: Wistar rats with MCA occlusion; assay: Stroke model, 3 h MCA occlusion, infarct volume at 7 days; type: in vivo, rat
Description: as §1, with “Statistical analysis was performed using the independent t-test.” left out
CP-1 dissolved in 1% DMSO and isotonic saline was given intravenously to Wistar rats (15 μl/min) at a concentration of 50 μM for four hours beginning at the end of three hours of MCA occlusion, in accordance with the protocol described hereinabove. […] All animals which survived 7 days were sacrificed and the infarct volume was measured 7 days after the MCA occlusion. […]

[N-]=[N+]=CC(=O)C(COCc1ccccc1)NC(=O)C(Cc1ccccc1)NC(=O)OCc1ccccc1 (stereo not drawn) [CP-1, benzyloxycarbonyl-Phe-Ser(OBz)-CHN2] (Cbz-Phe-Ser(Bn)-CHN2; configuration not given here)
Calpain k′2app (Calpain): <10 M^−1S^−1 | % Hemisphere Infarct Volume (% ± SEM) ([1]; 2 μM i.v. 15 μl/min for 4 h after reperfusion): 39 ± 2.1, p > 0.1% | % Hemisphere Infarct Volume (% ± SEM) ([1]; 10 μM i.v. 15 μl/min for 4 h after reperfusion): 22 ± 4.7, p = 0.01% | % Hemisphere Infarct Volume (% ± SEM) ([1]; 50 μM i.v. 15 μl/min for 4 h after reperfusion): 20 ± 4.1, p = 0.003% | % Hemisphere Infarct Volume (% ± SEM) ([1]; 250 μM i.v. 15 μl/min for 4 h after reperfusion): 23 ± 5.2, p = 0.02% | area of damage of the cerebral hemisphere ([1]; all doses except 2 μM, reduced from 37% in control): about 20% | % Hemisphere Infact Volume (% ± SEM) ([2]; 50 μM i.v. for 4 h beginning at end of 3 h MCA occlusion, day 7, control 41.1 ± 2.4, P>0.05): 39.9 ± 4.1% | reducing infarct size ([2]; 50 μM, 3 hour MCA occlusion): not effective
